Molecular target: T1, Phospholipase A2 derived from bovine pancreas (PLA2) (Bos taurus, UniProt P00593)
T1 construct: gene PLA2G1B; commercial native enzyme from bovine pancreas (Sigma)
Assay: fluorescence enhancement (BODIPY FL release, […] nm)
Format: biochemical
Conditions: 10 mM Tris-HCl pH 8.0, 100 mM NaCl, 10 mM CaCl2, 45 nM substrate, 6 min; labelled compound; enzyme used as control

T1 sequence (P00593 23-145): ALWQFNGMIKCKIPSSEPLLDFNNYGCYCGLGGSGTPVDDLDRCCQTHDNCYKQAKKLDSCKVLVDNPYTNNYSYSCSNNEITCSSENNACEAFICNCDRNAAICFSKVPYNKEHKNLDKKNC

## CC1=CC(C)=[N+]2C1=Cc1ccc(CCCCCCCCCCC(=O)OC[C@H](COP(=O)([O-])OCC[N+](C)(C)C)OC(=O)CCCCCCCCCCc3ccc4n3[B-](F)(F)[N+]3=C(C)C=C(C)C3=C4)n1[B-]2(F)F [bis-BODIPY FL C11-PC]
  fluorescence enhancement (BODIPY FL release, 485/530 nm): S. marcescens PhlA and bovine pancreatic PLA2 released fluorescent fatty acids from bis-BODIPY FLC11-PC

— paper PMC2800117, “The hemolytic and cytolytic activities of Serratia marcescens phospholipase A (PhlA) depend on lysophospholipid production by PhlA” (BMC Microbiology, 2009)
